Holding throughout (format): in vivo
In assay [1] the test system is soybean (Glycine max -- var. Winchester). Description: pre-emergence herbicidal activity, soybean. The following applies: 1 kg/Ha, about fourteen days, read-out: pre-emergence herbicidal activity (% control) SOY. In a few lines:
(§1)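 Seeds sown in flats of soil mix were sprayed pre-emergence with test compound in water/acetone at 1 kg/Ha. Flats were held about fourteen days beside untreated controls, then phytotoxicity was scored as percent control (0 = no effect, 100 = complete control).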

The subject of assay [2] is wheat (Triticum aestivum var. Lew). The experiment in a line: pre-emergence herbicidal activity, wheat. The following applies: 1 kg/Ha, about fourteen days, read-out: pre-emergence herbicidal activity (% control) WHT. In a few lines:
as §1

The test system of assay [3] is field corn (Zea mays var. Pioneer 3732). Description: pre-emergence herbicidal activity, corn. The note with it: 1 kg/Ha, about fourteen days, read-out: pre-emergence herbicidal activity (% control) CRN. In a few lines:
as §1

For assay [4], the system named is velvetleaf (Abutilon theophrasti). Description: pre-emergence herbicidal activity, velvetleaf. The following applies: 1 kg/Ha, about fourteen days, read-out: pre-emergence herbicidal activity (% control) ABUTH. In outline:
as §1

For assay [5], the system named is morningglory (Ipomea lacunosa or Ipomea hederacea). The experiment in a line: pre-emergence herbicidal activity, morningglory. The note with it: Ipomoea, 1 kg/Ha, about fourteen days, read-out: pre-emergence herbicidal activity (% control) IPOSS. In outline:
as §1

The test system of assay [6] is common chickweed (Stellaria media). Description: pre-emergence herbicidal activity, chickweed. The note with it: 1 kg/Ha, about fourteen days, read-out: pre-emergence herbicidal activity (% control) STEME. In outline:
as §1

The test system of assay [7] is common cocklebur (Xanthium strumarium L.). Description: pre-emergence herbicidal activity, cocklebur. The note with it: 1 kg/Ha, about fourteen days, read-out: pre-emergence herbicidal activity (% control) XANPE. In a few lines:
as §1

Assay [8] has as its system blackgrass (Aloepecurus myosuroides). Description: pre-emergence herbicidal activity, blackgrass. The following applies: Alopecurus myosuroides, 1 kg/Ha, about fourteen days, read-out: pre-emergence herbicidal activity (% control) ALOMY. In outline: as §1
Assay [9] relates to green foxtail (Setaria viridis). The experiment in a line: pre-emergence herbicidal activity, green foxtail. The following applies: 1 kg/Ha, about fourteen days, read-out: pre-emergence herbicidal activity (% control) SETVI. In a few lines: as §1
For assay [10], the system named is soybean (Glycine max -- var. Winchester). Description: post-emergence herbicidal activity, soybean. The note with it: 1 Kg/Ha, about fourteen days, read-out: post-emergence herbicidal activity (% control) SOY. In outline:
(§2)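 Percent control (0–100) was rated about fourteen days after spraying of emerged, germinated plants in flats with compound dissolved in water/acetone at 1 Kg/Ha.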

Assay [11] deals with wheat (Triticum aestivum var. Lew). The experiment in a line: post-emergence herbicidal activity, wheat. The following applies: 1 Kg/Ha, about fourteen days, read-out: post-emergence herbicidal activity (% control) WHT. In a few lines: as §2
The subject of assay [12] is field corn (Zea mays var. Pioneer 3732). The experiment in a line: post-emergence herbicidal activity, corn. The note with it: 1 Kg/Ha, about fourteen days, read-out: post-emergence herbicidal activity (% control) CRN. In a few lines: as §2
Assay [13] has as its system velvetleaf (Abutilon theophrasti). Description: post-emergence herbicidal activity, velvetleaf. The note with it: 1 Kg/Ha, about fourteen days, read-out: post-emergence herbicidal activity (% control) ABUTH. In outline:
as §2

Assay [14] concerns morningglory (Ipomea lacunosa or Ipomea hederacea). Description: post-emergence herbicidal activity, morningglory. The note with it: Ipomoea, 1 Kg/Ha, about fourteen days, read-out: post-emergence herbicidal activity (% control) IPOSS. In a few lines:
as §2

Assay [15] concerns common chickweed (Stellaria media). The experiment in a line: post-emergence herbicidal activity, chickweed. The following applies: 1 Kg/Ha, about fourteen days, read-out: post-emergence herbicidal activity (% control) STEME. In a few lines: as §2
Assay [16] has as its system common cocklebur (Xanthium strumarium L.). The experiment in a line: post-emergence herbicidal activity, cocklebur. The following applies: 1 Kg/Ha, about fourteen days, read-out: post-emergence herbicidal activity (% control) XANPE. In a few lines:
as §2

The subject of assay [17] is blackgrass (Aloepecurus myosuroides). Description: post-emergence herbicidal activity, blackgrass. The following applies: Alopecurus myosuroides, 1 Kg/Ha, about fourteen days, read-out: post-emergence herbicidal activity (% control) ALOMY. On the procedure: This example sets forth the methods of herbicidal testing conducted on the specific compounds set forth below. Specifically, the compounds referenced below were tested for pre- and post-emergence herbicidal activity using a variety of crops and weeds. The test plants include, but are not limited to, soybean (Glycine max -- var. Winchester), field corn (Zea mays var. Pioneer 3732), wheat (Triticum aestivum var. Lew), morningglory (Ipomea lacunosa or Ipomea hederacea), velvetleaf (Abutilon theophrasti), green foxtail (Setaria viridis), Johnsongrass (Sorghum halepense), blackgrass (Aloepecurus myosuroides), common chickweed (Stellaria media), and common cocklebur (Xanthium strumarium L.).
In the post-emergence test, seeds of the plant species named above were planted in flats containing the appropriate soil mixture where they were maintained to allow the seeds to germinate. When the plants in these flats reached the proper stage of growth, flats for the pre-emergence tests were planted in a like manner. The flats containing the post-emergence and pre-emergence test plant species were then sprayed with an appropriately concentrated water/acetone solution of test compound. Once treated the flats were maintained, along with untreated controls, for about fourteen days. All treated plants were then examined for phytotoxicity, which was expressed as percent control where 0 is no effect and 100 is complete control. Effective rates of application for the compounds of the present invention range from 0.001 to 3 kg/ha, more likely from […] to 1 Kg/ha.
Herbicidal activity data at selected application rates are in Tables 4 and 5. The test compounds are identified by numbers correspond to those in Table 1.
SOY is soybean, WHT is wheat, CRN is corn, ABUTH is velvetleaf, IPOSS is
morningglory, STEME is chickweed, XANPE is cocklebur, ALOMY is blackgrass,
Rate of application of test compound is 1 Kg/Ha. The definitions as shown under Table 4 apply to Table 5.

The test system of assay [18] is green foxtail (Setaria viridis). Description: post-emergence herbicidal activity, green foxtail. The note with it: 1 Kg/Ha, about fourteen days, read-out: post-emergence herbicidal activity (% control) SETVI. In a few lines: as §2

`C#CCn1c(C(F)(F)F)cc(=O)n(-c2ccc(Cl)c3c2CN(C(C)C)C3=O)c1=O` [Compound 75]: the activity at 1000 g/ha stood at 100% in [1]; 100% in assay [2]; 95% in assay [3]; 100% in assay [4]; 100% in [5]; 100% in assay [6]. Moreover, the activity at 1000 g/ha was determined as 95% in [7]; 95% in [8]; 100% in assay [9]; 60% in [10]; 70% in [11]; 50% in assay [12]. The activity at 1000 g/ha in [13] stood at 100%; in assay [14], 50%; in [15], 100%; in assay [16], 85%; in assay [17] it was 100%; in assay [18], 45%.
Consider `CC(C)N1Cc2c(-n3c(=O)cc(C(F)(F)F)n(Cc4ccccc4)c3=O)ccc(Cl)c2C1=O` [Compound 73], for which the activity at 1000 g/ha in assay [1] is 95%; in assay [2], 69%; in assay [3] it was 90%; in assay [4] it was 100%; in assay [5] it was 40%; in assay [6], 100%. The activity at 1000 g/ha in [7] stood at 70%; in assay [8] it was 70%; in [9], 100%; in assay [10], 90%; in [11], 50%; in assay [12], 75%. Also, the activity at 1000 g/ha in assay [13] was 100%; in assay [14], 80%; in [15] it was 100%; in assay [16], 75%; in [17], 70%; in assay [18] it was 60%.
`CCn1c(C(F)(F)F)cc(=O)n(-c2ccc(Cl)c3c2CN(C(C)C)C3=O)c1=O` [Compound 71]: the activity at 1000 g/ha in assay [1], in [2], in assay [3], in [4], in [5] and in [6] was 100% each time. In addition, the activity at 1000 g/ha in assay [7] amounted to 100%; in assay [8] it was 90%; in assay [9], 100%; in assay [10], 90%; in [11], 80%; in assay [12] it was 90%. Moreover, the activity at 1000 g/ha in [13] was 95%; in [14] it was 95%; in [15] it was 100%; in [16] it was 70%; in assay [17], 100%; in assay [18] it was 100%.
As to `CCCn1c(C(F)(F)F)cc(=O)n(-c2ccc(Cl)c3c2CN(C(C)C)C3=O)c1=O` [Compound 72], the activity at 1000 g/ha came out at 20% in assay [1]; 30% in assay [2]; 70% in assay [3]; 40% in assay [4]; 25% in [5]; 65% in assay [6]. In addition, the activity at 1000 g/ha in assay [7] came to 40%; in assay [8], 30%; in [9], 75%; in assay [10], 60%; in assay [11], 0%; in [12] it was 60%. The activity at 1000 g/ha amounted to 20% in assay [13]; 10% in assay [14]; 10% in [15]; 10% in assay [16]; 10% in [17]; 50% in assay [18].

The values above are taken from US6277847A, “Herbicidal isoindolinonyl-and 3,4-dihydroisoquinolonyl-substituted heterocycles” (FMC Corporation, priority 2000, dated 2001).
